In the assay the test system is patients suffering from Chronic non-cancer pain (CNCP). The assay can be described thus: Human clinical trial, pain scored by visual analogue scale (VAS). Type of assay: in vivo. As to conditions: mean ± SD, scale 0-100 mm. An excerpt: The present inventions disclosed in this specification further include a method of treating pain and pain related conditions. This was established using a well controlled human clinical trial. The method of treating pain and pain related conditions by using a combination disclosed by this invention has been established in a long-term controlled clinical evaluation. A typical study determined the efficacy of tramadol and meloxicam as monotherapy and a combination of meloxicam and a slow release tramadol for the treatment of pain and pain related conditions
• Tramadol hydrochloride: Generic Tramadol Hydrochloride tablets 50 mg, • Meloxicam: Generic Meloxicam tablets 7.5 mg • Slow Release Tramadol Hydrochloride: a) Example 1, b) Ultram ER 100 mg
The administered dosage comprised either tramadol hydrochloride (100 mg) or meloxicam 7.5 mg or a combination of meloxicam (7.5 mg) and slow release tramadol hydrochloride (100 mg) selected from Treatments D or E or a combination of meloxicam 5 mg and a slow release tramadol 100 mg (Treatment F) was administered once a day to the patients in a long-term clinical trial.
140 patients were used in a clinical trial were suffering from Chronic non-cancer pain (CNCP), defined as pain for longer than 6 months, including neuropathic pain, osteoarthritis, rheumatoid arthritis, fibromyalgia, and back and musculoskeletal pain were included in the clinical trial.
Those patients with migraines, dental pain, abdominal pains (from chronic pancreatitis, kidney stones, etc.) and ischemic pain from vascular disease were excluded because they are usually not classified as CNCP. Patients with history of addiction (alcohol or drugs) were excluded from the trials
Randomization was performed with computer-generated random numbers in blocks of 10. Randomization codes of the monotherapy or combination therapy treatments were placed in sequentially numbered, opaque, sealed envelopes in the biopsy center. When a patient was recruited and consented, the next numbered envelope was opened by the operator, who had no knowledge of the randomization code before the treatment
Pain was assessed using a visual analogue scale (VAS) graded from 0-100 mm. Pain scoring was performed every three hours after drug administration for a total of 24 hours.
The patients were taught with a standard method by the physician how to use a VAS scoring from 0 to 100 mm to grade the intensity of pain experienced during the treatment. On that scale, the left endpoint, 0, was defined as no pain and the right endpoint 100, as the worst pain the patient could imagine. There were no further marks on the line. The intensity of pain was indicated by the distance in millimeters from the left end. Patients were asked to grade the pain intensity immediately after the administration of drugs and every three hour after for 24 hours by drawing a vertical line over each VAS line. The doctors who prescribed the medicines obtained all the VAS forms for that specific patient.
Data are expressed as means ±SD. Differences in VAS were analyzed with use of the unpaired Student t test and differences in pain score reductions between the two groups were analyzed with use of the Mann-Whitney U test for the median difference. Similar statistical tests were used for between group comparisons of other outcome variables as appropriate. A two tailed P value of less than. […] SAS software was used for the statistical analysis.
We considered that a clinically significant benefit of using meloxicam and slow release tramadol would be a reduction in the pain score (VAS) of at least 15% compared to the monotherapy with either tramadol hydrochloride or naproxen or meloxicam or placebo. Alternatively, the dose reduction of at least 15% of either NSAID or tramadol when used as combination over the monotherapy as significant benefit

Counter-ions that a name gives are not always drawn.

As for `Cc1cnc(N/C(O)=C2/C(=O)c3ccccc3S(=O)(=O)N2C)s1` [Treatment B, 4-hydroxy-2-methyl-N-(5-methyl-2-thiazolyl)-2H-1,2-benzothiazine-3-carboxamide-1,1-dioxide], the “Pain scored by VAS” value (VAS time 0 hours) was determined as 34 ± 19.1 mm; the “Pain scored by VAS” value (VAS time 3 hours) is 18 ± 19.1 mm; the “Pain scored by VAS” value (VAS time 6 hours) is on record as 14 ± 21.1 mm; the “Pain scored by VAS” value (VAS time 9 hours) is listed as 14 ± 20.3 mm; the “Pain scored by VAS” value (VAS time 12 hours) worked out at 15 ± 18.6 mm; the “Pain scored by VAS” value (VAS time 15 hours) was determined as 17 ± 21.5 mm. Further, the “Pain scored by VAS” value is 19 ± 19.7 mm (VAS time 18 hours), 20 ± 18.3 mm (VAS time 21 hours) and 25 ± 20.9 mm (VAS time 24 hours).
Turning to `COc1cccc([C@@]2(O)CCCC[C@@H]2CN(C)C)c1` (racemic) [Treatment A, (±) cis-2-[(dimethylamino)methyl]-1-(3-methoxyphenyl)cyclo-hexanol hydrochloride], the “Pain scored by VAS” value is recorded as 30.3 ± 21.2 mm (VAS time 0 hours); 22.3 ± 20.1 mm (VAS time 3 hours); 18.3 ± 20.6 mm (VAS time 6 hours); 15.3 ± 17.2 mm (VAS time 9 hours); 12.3 ± 21.2 mm (VAS time 12 hours); 14.3 ± 19.2 mm (VAS time 15 hours). In addition, the “Pain scored by VAS” value worked out at 15.3 ± 21.3 mm (VAS time 18 hours), 14.3 ± 19.2 mm (VAS time 21 hours) and 14.3 ± 19.2 mm (VAS time 24 hours).

For the origin of these results see patent US20080026054A1, “Novel anelgesic combination” (NECTID INC., priority 2007, published 2008).
